Data reported in US7019132B2, “Porphyrin derivatives” (Kostarworld Co., Ltd., priority 2003, dated 2006).

Assays:
EMT6 cells [1] = assay: Annexin V/PI staining for cell apoptosis; type: cell-based, mouse; conditions: PDT treatment group 0.2 μg/hr; above 90% of cells survived in control
Text: FIG. 4 presents the staining result with Annexin V/PI staining to study the action mechanism of cell apoptosis.

EMT6 cell = assay: MMP (mitochondrial membrane potential), JC-1 dye staining, FACS analysis; type: cell-based, mouse; conditions: after PDT, JC-1 staining
Text: FIG. 8 depicts the diagram determining MMP (mitochondrial membrane potential) within EMT6 cell after the treatment of PDT and JC-1 dye staining by FACS analysis.

EMT6 tumor = assay: In vivo PDT assay, EMT6 breast cancer transplanted to BALB/c mouse
Description: DH-1-180-3 as a test sample of the present invention and photofrin (photogem®) as a control group were used in test.
The tumor size of each mice was determined using by caliper at the interval of 2 or 3 days and the survival ratio of the mice according to tumor was also determined.

[2] = Acute toxicity test on ICR mice; type: in vivo; conditions: i.p. 20, 10 and 1 mg/kg, observed 24 hrs
Description: (§1) The acute toxicity tests on ICR mice (mean body weight 25±5 g) and Sprague-Dawley rats (235±10 g) were performed using the compounds 1 and 10. Each group consisting of 3 mice or rats was administrated intraperitoneally with 20 mg/kg, 10 mg/kg and 1 mg/kg of test compounds or solvents (0.2 ml, i.p.), respectively and observed for 24 hrs.

[3] = Acute toxicity test on Sprague-Dawley rats; type: in vivo; conditions: i.p. 20, 10 and 1 mg/kg, observed 24 hrs
Description: as §1

[4] = λexcitation 508 nm, toluene, air-saturated, 21° C.
Description: The transforming activity of the target compounds into singlet oxygen state was measured by following methods.
The experimental assay was performed under air-saturated condition (99.999% ultra-purified gas) using toluene (Merck Co. HPLC grade) as a solvent, in the oxygen concentration in the solution of 2.1×10^−3 M at 21° C.

mouse EMT6 cell line [5] = test system: mouse EMT6 cell line
Description: (§2) Breast cancer cell line (EMT6; 1×10^6 cells/mouse) was cultured in culture medium (DMEM+10% FBS+100 units of Penicillin+100 μg streptomycin), treated with 0.25% Trypsin-EDTA to collect the cells and the number of cells was counted using by Trypan blue staining reagent.
(§3) Each 3 ml of cells was added to 35 mm of culture dish in the concentration of 2×10^5 cells/ml and incubated in 5% CO2 incubator for 24 hrs in order that the cells be arranged to be made a mono-layer.
(§4) Photosensitizing substance was added thereto and irradiation was subjected thereon at the strength of 1.2 J using by halogen lamp. The culture dishes were transferred to incubators and incubated.
(§5) The cell cytotoxicity caused by PDT was analyzed by MTT assay and the morphology of cells was observed by microscopy.
(§6) Conventional photosensitizer, i.e., photogem®, was used as a comparative control group and several factors such as the concentration of test samples, the irradiation strength of light and the absorption time of samples etc were modified in the present experiment.

EMT6 cells [6] = test system: EMT6 cells
mouse EMT6 cell line [7] = assay: Cell cytotoxicity caused by PDT on EMT6 cell line, MTT assay
Description: as §2, §3, §4, §5, §6

## methyl pheophorbide α triethylene glycol ester [DH-1-180-3]
EMT6 cells [1]
  dead cells: 50 to 60%
EMT6 cell
  MMP (mitochondrial membrane potential): remarkably decreased
EMT6 tumor; 0.4 and 0.8 mg/kg/mouse, light 1.2 J 3 h later, vs control and photofrin (2 mg/kg/mouse)
  growing ratio of tumor: remarkably decreased
EMT6 tumor; PDT treatment group vs control group
  survival ratio: extended
[2]
  acute toxicity findings: no treatment-related effects on mortality, clinical signs, body weight changes and gross findings
[3]
  acute toxicity findings: no treatment-related effects on mortality, clinical signs, body weight changes and gross findings
[4]
  transformed photon yield (singlet oxygen state): 0.60 (5%)
Mouse EMT6 cell line [5]
  cell cytotoxicity without light: do not show cell cytotoxicty
  intensity of irradiating light for strongest cytotoxicity / optimum: 1.2 J
EMT6 cells [6]
  concentration showing the strongest cell cytotoxicity: at least 0.4 μg
  duration time showing the strongest cell cytotoxicity: at least 60 minutes
Mouse EMT6 cell line [7]; 0.4 μg/ml, 1.2 J
  optimum absorption time: 1 h
Mouse EMT6 cell line [7]; EMT6, MTT assay, with light irradiation
  LD100: 0.4 µg
Mouse EMT6 cell line [7]; absorption 1 hour, 1.2 J, analysis at 24 hrs
  optimum concentration of photosensitizer used in PDT: 0.4 µg/mL
